2 compounds from PMC4595804, “A strategy to discover decoy chemokine ligands with an anti-inflammatory activity” (Scientific Reports, 2015) can be followed below.

The target in one assay is T1, CCL22 D58A (Homo sapiens, UniProt O00626, D58A).
T1 construct: codes for the mature CCL17 or CCL22 with an N-terminal thioredoxin-hexahistidin (TRX- (His)6) tag; TRX-(His)6 (N, cleaved yes); made in house; host or cells: E. coli BL21 (DE3)
As to the kind of experiment: Calcium responses induced by chemokine mutant, neutraligand protocol. In kind it is cell-based. Conditions: 10 μM compound, 5 nM chemokine; remaining response. As for the experimental part:
(§1) Dye loaded cells were placed in the FlexStation 3 (Molecular Devices). Calcium mobilization was measured at 401 and 475 nm emission fluorescence after excitation at 355 nm. For the primary screening, the ligands (50μl of chemokine mixed with DMSO or test compounds) were added to the cells at 40 s, followed by digitonin addition (50μl) at 100 s to the cells. Molecules were screened at a final concentration of 2μg/ml with 5 nM CCL17 or CCL22. […] Raw fluorescence data (at 401 and 475 nm) were exported and the ratio 401/475 was calculated. The calcium response values (height of peak response over baseline) were determined. Hits were selected by comparing the response amplitude at the time of the chemokine addition ± test compound. The Z’ factor[29] was calculated according to the following equation: Z’ = 1-(3SD+ + 3SD−)/|Ave+ − Ave−|, where SD+ and Ave+ are respectively the standard deviation and the mean value of the positive controls (chemokine + DMSO), while SD− and Ave− are respectively the standard deviation and the mean value of the negative controls (HEPES-BSA (0.1%) mixed with DMSO, or cells mixed with C-021). Hit molecules were confirmed by performing concentration-response curves and their half maximal inhibitory concentration (IC50) values were calculated using the Kaleidagraph software.
(§2) and the denaturated chemokines (disulfite bonds reduced by β-mercaptoethanol). The
(§3) chemokine activity was then, tested in the in vitro assays. […]

Another assay deals with T2, CCL22 R80N (Homo sapiens, UniProt O00626, R80N).
T2 construct: codes for the mature CCL17 or CCL22 with an N-terminal thioredoxin-hexahistidin (TRX- (His)6) tag; TRX-(His)6 (N, cleaved yes); made in house; host or cells: E. coli BL21 (DE3)
T2 sequence (O00626 25-93 R80N): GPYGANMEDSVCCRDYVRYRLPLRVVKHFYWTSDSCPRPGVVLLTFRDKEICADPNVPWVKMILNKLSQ
The description is as above. The format is cell-based. Conditions: 10 μM compound, 5 nM chemokine; remaining response. The method, then: as §1, §2, §3

The target in a further assay is T3, CCL22 W55A (Homo sapiens, UniProt O00626, W55A).
T3 construct: codes for the mature CCL17 or CCL22 with an N-terminal thioredoxin-hexahistidin (TRX- (His)6) tag; TRX-(His)6 (N, cleaved yes); made in house; host or cells: E. coli BL21 (DE3)
T3 sequence (O00626 25-93 W55A): as the sequence (O00626 25-93 R80N) above, with W31A, N56R counted along it
The assay is described as above. The format is cell-based. The settings on record: 10 μM compound, 5 nM chemokine; remaining response. The method, then: as §1, §2, §3

Another assay addresses T4, CCL22 T56A (Homo sapiens, UniProt O00626, T56A).
T4 construct: codes for the mature CCL17 or CCL22 with an N-terminal thioredoxin-hexahistidin (TRX- (His)6) tag; TRX-(His)6 (N, cleaved yes); made in house; host or cells: E. coli BL21 (DE3)
The description is as above. In kind it is cell-based. Conditions: 10 μM compound, 5 nM chemokine; remaining response.

For another assay, the target named is CXCL8 (Homo sapiens, UniProt P10145). The assay is described as follows: Selectivity, neutraligand protocol, EGFP-CXCR2+ HEK cells. In kind it is cell-based. The settings on record: 10 μM compound, 5 nM CXCL8, EGFP-CXCR2+ HEK cells. As for the experimental part:
Figure 6 (a) Selectivity of CCL17 and CCL22 neutraligands towards 10 chemokines according to the “neutraligand protocol”. […] Each column represents the mean (block) ± SD (bars) of n = 3 experiments performed in triplicate. *p < 0.05; **p < 0.01; ***p < 0.005 as compared to chemokine + DMSO. (b) Chemokine neutraligands inhibited CCR4 endocytosis induced by CCL22 or CCL17. EGFP-CCR4^+ HEK cells were incubated for 30 min with DMSO or chemokine (100 nM CCL22 or CCL17) in the presence or absence of test compounds. […] Cell surface EGFP-tagged CCR4 receptors were measured by EGFP antibody labeling and flow cytometry analysis. CCR4 internalization was expressed as a percentage of total receptor surface expression calculated using control cells incubated with DMSO (100%). […] The number of migrating cells in the presence of chemokine and compounds were expressed as the corresponding percentages. Results were analyzed by fitting the experimental curves (% of migrating cells vs log compound concentration) using the Kaleidagraph software program, and the corresponding IC50 values were calculated. […]
Dye loaded cells were placed in the FlexStation 3 (Molecular Devices). Calcium mobilization was measured at 401 and 475 nm emission fluorescence after excitation at 355 nm. […] Raw fluorescence data (at 401 and 475 nm) were exported and the ratio 401/475 was calculated. […]

The next assay has as its system CCR4+ HUT78 cells. The assay is described as follows: HUT78 chemotaxis: compounds alone or preincubated with the cells (antagonist protocol). The format is cell-based, human. Conditions: for chemotactic activity of the compound by itself: HUT78 cells, no chemokine; for inhibition of CCR4+ HUT78 T cell migration, compound preincubated with the cells: receptor antagonist protocol, 1 μM, 3 nM CCL17 or CCL22. As for the experimental part: Cell migration was carried out in RPMI1640-BSA (0.1%) using Transwell 96-well plates (Corning Costar, 5 μm pore size, polycarbonate membranes). […] Lower wells contained the same medium diluted with DMSO or chemokine (3 nM CCL17 or CCL22).
0.1% BSA using Transwell 96-well plates (Corning Costar, 5µm pore size, polycarbonate […]
the same medium diluted with DMSO or chemokine (3nM CCL17 or CCL22). In neutraligand inhibition studies, prior to their use, CCL17 (a) and CCL22 (b) were pre-incubated with […]
in the lower compartment. For characterization of the antagonist properties, the compounds were pre-incubated with the cells in the upper compartment. C-021 (1µM, stripped bars), the CCR4 receptor antagonist, was used as a control in both incubation protocols. Results are expressed as the percentage of cells that migrated to the lower chamber. Data represent the means±SD. Experiments were performed in triplicate.
(1 picture or pasted object on this page, not shown here)

T4 sequence (O00626 25-93 T56A): as the sequence (O00626 25-93 R80N) above, with T32A, N56R counted along it
Sequence of CXCL8 (P10145 28-99 limits assumed): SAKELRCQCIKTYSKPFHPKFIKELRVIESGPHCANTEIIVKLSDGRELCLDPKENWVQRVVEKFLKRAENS
T1 sequence (O00626 25-93 D58A): as the sequence (O00626 25-93 R80N) above, with D34A, N56R counted along it

On to `CC(C)=CCn1cnc2c1c(=O)n(C)c(=O)n2C` [GPN279, 1,3-dimethyl-7-(3-methylbut-2-enyl)-1H-purine-2,6(3H, 7H)-dione], for which the “calcium response induced by CCL22 D58A preincubated with compound” value on CCL22 D58A was “neither inhibited WT nor CCL22 mutants”. For the same compound, the “calcium response induced by CCL22 R80N preincubated with compound” value on CCL22 R80N is “neither inhibited WT nor CCL22 mutants”. Also, the “calcium response induced by CCL22 W55A preincubated with compound” value at CCL22 W55A is given as “neither inhibited WT nor CCL22 mutants”. Further, the “calcium response induced by CCL22 T56A preincubated with compound” value on CCL22 T56A is listed as “neither inhibited WT nor CCL22 mutants”. For the same compound, the “effect on calcium responses induced by CXCL8” value on CXCL8 was “no effect”. Also, in the assay on CCR4+ HUT78 cells, the “chemotactic activity of the compound by itself” value is reported as “devoid of chemotactic activity” and the “inhibition of CCR4+ HUT78 T cell migration, compound preincubated with the cells” value is “no ability to inhibit”.
As for `O=C(OCC(O)CO)c1ccccc1O` (centres unmarked) [GPN136, 2,3-dihydroxypropyl 2-hydroxybenzoate], at CCL22 D58A, the “calcium response induced by CCL22 D58A preincubated with compound” value is recorded as 76.0 ± 3.0%. At CCL22 R80N, the “calcium response induced by CCL22 R80N preincubated with compound” value is listed as 100.0 ± 3.0%. Besides, the “calcium response induced by CCL22 W55A preincubated with compound” value at CCL22 W55A came out at 46.0 ± 3.0%. The “calcium response induced by CCL22 T56A preincubated with compound” value at CCL22 T56A was found to be 40.0 ± 6.0%. Moreover, on CXCL8, the “effect on calcium responses induced by CXCL8” value is reported as “no effect”. In addition, in the assay on CCR4+ HUT78 cells, the “chemotactic activity of the compound by itself” value is given as “devoid of chemotactic activity” and the “inhibition of CCR4+ HUT78 T cell migration, compound preincubated with the cells” value is on record as “no ability to inhibit”.
